Legend:
bedstraw = test: Test B pre/postemergence bedstraw; format: in vivo, Galium aparine; conditions: Preemergence; for Bedstraw plant response rating: scale 0 to 10, 0 is no effect, 10 is complete control
Outline: (§1)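 Herbicidal effect was estimated by eye on a ten-point control scale after plants spent twelve to sixteen days in a greenhouse following soil or foliar treatment. Foliar sprays targeted plants at one to four leaves; all doses were formulated in a non-phytotoxic solvent with surfactant.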

blackgrass = test: Test B pre/postemergence blackgrass; format: in vivo, Alopecurus myosuroides
Outline: as §1

surinam grass = test: Test B pre/postemergence surinam grass; format: in vivo, Brachiaria decumbens
Outline: as §1

cocklebur = test: Test B pre/postemergence cocklebur; format: in vivo, Xanthium strumarium
Outline: as §1

corn = test: Test B pre/postemergence corn; format: in vivo, Zea mays
Outline: as §1

crabgrass = test: Test B pre/postemergence crabgrass; format: in vivo, Digitaria sanguinalis
Outline: as §1

giant foxtail = test: Test B pre/postemergence giant foxtail; format: in vivo, Setaria faberii
Outline: as §1

morningglory = test: Test B pre/postemergence morningglory; format: in vivo, Ipomoea hederacea
Outline: as §1

pigweed = test: Test B pre/postemergence pigweed; format: in vivo, Amaranthus retroflexus
Outline: as §1

rape = test: Test B pre/postemergence rape; format: in vivo, Brassica napus
Outline: as §1

soybean = test: Test B pre/postemergence soybean; format: in vivo, Glycine max
Outline: as §1

sugar beet = test: Test B pre/postemergence sugar beet; format: in vivo, Beta vulgaris
Outline: as §1

velvetleaf = test: Test B pre/postemergence velvetleaf; format: in vivo, Abutilon theophrasti
Outline: as §1

wheat = test: Test B pre/postemergence wheat; format: in vivo, Triticum aestivum
Outline: as §1

wild oat = test: Test B pre/postemergence wild oat; format: in vivo, Avena fatua
Outline: as §1

purple nutsedge = test: Test B pre/postemergence purple nutsedge; format: in vivo, Cyperus rotundus
Outline: as §1

[1] = Postemergence, Rate 62 g/ha, scale of 0 to 10, 0 is no effect, 10 is complete control
[2] = Postemergence, Rate 125 g/ha, scale 0 to 10, 0 is no effect, 10 is complete control
[3] = Postemergence, Rate 250 g/ha, scale 0 to 10
[4] = Postemergence, Rate 500 g/ha, scale 0 to 10, 0 is no effect, 10 is complete control
[5] = Preemergence, Rate 62 g/ha, scale of 0 to 10 where 0 is no effect and 10 is complete control
[6] = Preemergence, Rate 125 g/ha, scale 0 to 10, 0 is no effect, 10 is complete control
[7] = Preemergence, Rate 250 g/ha, scale 0 to 10, 0 is no effect, 10 is complete control
[8] = Preemergence, Rate 500 g/ha, scale of 0 to 10 where 0 is no effect and 10 is complete control

C=CCCCn1c(=O)on(C(=O)N(c2ccc(F)cc2F)C(C)C)c1=O [Compound 516]
6: Plant response rating, Crabgrass (crabgrass; [5])
4: Blackgrass plant response rating (blackgrass; [2]) | Redroot pigweed plant response rating (pigweed; [1]) | Rape plant response rating (rape; [2]) | Soybean plant response rating (soybean; [1]) | Soybean plant response rating (soybean; [2]) | Velvetleaf plant response rating (velvetleaf; [2]) | Plant response rating, Velvetleaf (velvetleaf; [4])
9: B. signalgrass plant response rating (surinam grass; [7]) | Crabgrass plant response rating (crabgrass; [2]) | Plant response rating, Crabgrass (crabgrass; [4]) | Crabgrass plant response rating (crabgrass; [6]) | Plant response rating, Giant foxtail (giant foxtail; [4]) | Plant response rating, Rape (rape; [4]) | Rape plant response rating (rape; [8]) | Wild oats plant response rating (wild oat; [8])
10: Blackgrass plant response rating (blackgrass; [8]) | B. signalgrass plant response rating (surinam grass; Preemergence, Rate 500 g/ha, scale 0 to 10, 0 is no effect, 10 is complete control) | Crabgrass plant response rating (crabgrass; [8]) | Plant response rating, Giant foxtail (giant foxtail; [5]) | Giant foxtail plant response rating (giant foxtail; [6]) | Giant foxtail plant response rating (giant foxtail; [8]) | Redroot pigweed plant response rating (pigweed; [8])
3: Plant response rating, Blackgrass (blackgrass; [5]) | B. signalgrass plant response rating (surinam grass; Postemergence, Rate 250 g/ha, scale 0 to 10, 0 no effect, 10 complete control) | Cocklebur plant response rating (cocklebur; [2]) | Cocklebur plant response rating (cocklebur; [3]) | Crabgrass plant response rating (crabgrass; [1]) | Morningglory plant response rating (morningglory; [2]) | Sugarbeets plant response rating (sugar beet; [6]) | Velvetleaf plant response rating (velvetleaf; [1])
0: Plant response rating, Bedstraw (bedstraw; Rate 62 g/ha, scale of 0 to 10 where 0 is no effect and 10 is complete control) | Bedstraw plant response rating (bedstraw; Rate 125 g/ha) | Blackgrass plant response rating (blackgrass; [1]) | B. signalgrass plant response rating (surinam grass; [1]) | B. signalgrass plant response rating (surinam grass; [2]) | Plant response rating, Cocklebur (cocklebur; [5]) | Cocklebur plant response rating (cocklebur; [6]) | Cocklebur plant response rating (cocklebur; [7]) | Cocklebur plant response rating (cocklebur; [8]) | Corn plant response rating (corn; [1]) | Corn plant response rating (corn; [2]) | Corn plant response rating (corn; [3]) | Plant response rating, Corn (corn; [4]) | Plant response rating, Corn (corn; [5]) | Corn plant response rating (corn; [6]) | Corn plant response rating (corn; [8]) | Giant foxtail plant response rating (giant foxtail; [1]) | Plant response rating, Morningglory (morningglory; [5]) | Morningglory plant response rating (morningglory; [6]) | Morningglory plant response rating (morningglory; [8]) | Plant response rating, Rape (rape; [5]) | Plant response rating, Soybean (soybean; [5]) | Soybean plant response rating (soybean; [6]) | Soybean plant response rating (soybean; [8]) | Sugarbeets plant response rating (sugar beet; [1]) | Sugarbeets plant response rating (sugar beet; [2]) | Plant response rating, Velvetleaf (velvetleaf; [5]) | Wheat plant response rating (wheat; [1]) | Plant response rating, Wheat (wheat; [5]) | Wheat plant response rating (wheat; [6]) | Wild oats plant response rating (wild oat; [1]) | Plant response rating, Wild oats (wild oat; [5]) | Nutsedge plant response rating (purple nutsedge; [1]) | Nutsedge plant response rating (purple nutsedge; [2]) | Plant response rating, Nutsedge (purple nutsedge; [5]) | Nutsedge plant response rating (purple nutsedge; [6]) | Nutsedge plant response rating (purple nutsedge; [8])
1: Bedstraw plant response rating (bedstraw; Rate 250 g/ha) | Plant response rating, B. signalgrass (surinam grass; [5]) | Rape plant response rating (rape; [1]) | Rape plant response rating (rape; [6]) | Plant response rating, Sugarbeets (sugar beet; [5]) | Wheat plant response rating (wheat; [2])
5: Blackgrass plant response rating (blackgrass; [6]) | Plant response rating, B. signalgrass (surinam grass; [4]) | B. signalgrass plant response rating (surinam grass; [6]) | Plant response rating, Cocklebur (cocklebur; [4]) | Giant foxtail plant response rating (giant foxtail; [2]) | Wheat plant response rating (wheat; [8]) | Plant response rating, Wild oats (wild oat; [4]) | Wild oats plant response rating (wild oat; [6])
2: Cocklebur plant response rating (cocklebur; [1]) | Morningglory plant response rating (morningglory; [1]) | Wild oats plant response rating (wild oat; [2])
8: Blackgrass plant response rating (blackgrass; [7]) | Plant response rating, Redroot pigweed (pigweed; [4]) | Plant response rating, Sugarbeets (sugar beet; [4])
7: Bedstraw plant response rating (bedstraw; Rate 500 g/ha) | Blackgrass plant response rating (blackgrass; [3]) | Plant response rating, Blackgrass (blackgrass; [4]) | Plant response rating, Morningglory (morningglory; [4]) | Plant response rating, Redroot pigweed (pigweed; [5]) | Plant response rating, Soybean (soybean; [4]) | Sugarbeets plant response rating (sugar beet; [8]) | Velvetleaf plant response rating (velvetleaf; [8]) | Plant response rating, Wheat (wheat; [4])

Reference: patent US6737383B1, “Herbicidal oxadiazolidines” (priority 1999, dated 2004)
